Data taken from US20250381256A1 (priority 2022, published 2025).
Entries after “also recorded” stand apart in the source; their conditions may differ. Square brackets hold non-standard residues; d marks the D form. Ends that are not written are not given here. Cha = N[C@@H](CC1CCCCC1)C(=O)O

Experiments:
I-Ab = biological target: T1, I-Ab (Mus musculus, UniProt P14434+P14483); conditions: haplotype of C57BL/6 mice; read-out: Reported affinity for I-Ab; cited from earlier work
T1 sequence (P14434 24-256): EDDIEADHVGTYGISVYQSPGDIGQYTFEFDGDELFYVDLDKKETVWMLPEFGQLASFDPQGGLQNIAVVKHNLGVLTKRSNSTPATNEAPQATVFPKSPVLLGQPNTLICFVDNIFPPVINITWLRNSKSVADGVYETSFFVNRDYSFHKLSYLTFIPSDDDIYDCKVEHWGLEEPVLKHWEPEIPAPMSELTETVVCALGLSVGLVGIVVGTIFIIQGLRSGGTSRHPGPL
T1 sequence (P14483 28-265): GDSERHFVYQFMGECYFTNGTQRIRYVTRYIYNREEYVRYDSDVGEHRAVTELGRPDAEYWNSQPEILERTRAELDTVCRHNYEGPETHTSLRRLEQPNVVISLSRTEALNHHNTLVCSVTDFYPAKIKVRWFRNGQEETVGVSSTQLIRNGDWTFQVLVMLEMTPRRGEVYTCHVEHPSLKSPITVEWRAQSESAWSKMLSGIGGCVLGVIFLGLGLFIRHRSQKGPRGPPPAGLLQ

OVA323-339 = assay: Anti-OVA antibody responses after sublingual nanofiber immunization of mice; format: in vivo
[1] = Nanofiber structure after freeze-drying, tabletization and dissolution (atomic force microscopy); format: physicochemical; conditions: various levels of cryoprotectant sugars
Experimental: FIG. 16. SIMPL tablets incorporating Coil29-based nanofibers. Top panel: epitope-containing peptide nanofibers were assembled in buffer, then cryoprotectant sugars were added, and tablets were formed by freeze drying. Bottom panel: Tablets were stable enough for handling (left), and Coil29 nanofibers retained their structure after freeze-drying, tabletization, and dissolution (images by atomic force microscopy).

[2] = test system: CFT073 uropathogenic E. coli; assay: Transurethral infection model with CFT073; conditions: 5×10^7 CFU CFT073, vs control OVA vaccine
Experimental: Bacterial Culture and Challenge Model. The uropathogenic E. coli strain CFT073 was purchased from ATCC (700928); this strain was originally isolated from a pyelonephritis patient. CFT073 was cultured at 37° C. with aeration in Luria broth (10 g/L tryptone, 5 g/L yeast extract, 10 g/L sodium chloride) at a 1:100 dilution from a starter culture.
For the transurethral infection model, water supply was removed from cages for one hour prior to infection to allow for voiding of bladder. Mice were sedated with an i.p. injection of a ketamine/xylazine cocktail and a sterilized plastic needle dabbed in surgical lubricant was used to deliver 5×10^7 CFU of CFT073 into the urethra. Mice were monitored as for the bacteremia model, but with sacrifice at 48 h.

gut microbiome = assay: Microbiome analysis of fecal pellets (16S rRNA sequencing); format: in vivo, C57BL/6 mice
Experimental: Microbiome Analysis. Fecal pellets were collected from mice and immediately frozen on dry ice prior to storage at −80° C. Samples were submitted to the Duke Center for Genomic and Computational Biology Microbiome Shared Resource core for microbiome analyses. In brief, the Duke Microbiome Core Facility (MCF) extracted DNA using the Qiagen PowerSoilPro DNA Kit (Qiagen, 47014). Bacterial community composition in isolated DNA samples was characterized by amplification of the V4 variable region of the 16S rRNA gene by polymerase chain reaction using the forward primer 515 and reverse primer 806 following the Earth Microbiome Project protocol (http://www.earthmicrobiome.org/). These primers (515F and 806R) carry unique barcodes that allow for multiplexed sequencing. Concentration of the PCR products were accessed using a Qubit dsDNA HS assay kit (ThermoFisher, Q32854) and a Promega GloMax plate reader. Equimolar 16S rRNA PCR products from all samples were pooled prior to sequencing, which was performed by the Duke Sequencing and Genomic Technologies (SGT) shared resource on an Illumina MiSeq instrument configured for 250 base-pair paired-end sequencing runs.
Sequences were analyzed using QIIME2 software. Demultiplexed forward reads were assigned a cut off between 10-230 bp and reverse reads were assigned a cut off between 10-160 bp. […]

[3] = test system: 1:1:1 mixture of plreA, plutA, and plroN; assay: Urinary antibody ELISA on undiluted urine of immunized mice; conditions: one nanofiber and three nanofiber groups combined
Experimental: Animals and Immunizations. […] Murine immunizations were initiated with female C57BL/6 mice (Envigo) aged 9-12 weeks. For sublingual immunizations, mice were deeply anesthetized by a cocktail delivering 100 mg/kg ketamine and 10 mg/kg xylazine. For droplet immunizations, a micropipette with a 20 μL tip was used to apply 8 μL of the immunizing solution below the tongue. For tablet immunizations, the tablet was placed below the tongue of anesthetized mice using tweezers. For droplet and tablet immunizations, the mouse's heads were placed in anteflexion for 20 min following administration to prevent swallowing of the material.
Measurement of Antibody Responses. Serum was collected via the submandibular vein. For analysis of epitope-specific IgG by ELISA, plates were coated with 20 μg/mL of streptavidin (Millipore Sigma, 189730) overnight at 4° C. Plates were washed with 0.5 g/L Tween-20 in PBS (1×PBST), coated for 1 hour with 20 μg/mL biotinylated plreA, pluta, or plroN, and blocked with Super Block Blocking Buffer (Thermo Scientific, 37515). […] Sera diluted in PBST-BSA or undiluted urine were added to the plate, and antigen-specific IgG was detected by horseradish peroxidase (HRP) conjugated Fcγ fragment specific goat anti-mouse IgG (Jackson Immuno Research, 15-035-071). […]

## PADRE ([dA]K[Cha]VAAWTLKA[dA]) [aKXVAAWTLKAa]
I-Ab
  Kd: 0.094 µM

## QARILEADAEILRAYARILEAHAEILRAQ (Ac-QARILEADAEILRAYARILEAHAEILRAQ-NH2) [Coil29]
OVA323-339; SIMPL tablets, range of peptide and cryoprotectant sugar concentrations, 10 μg c-di-AMP
  Sublingual immunogenicity after tabletization: sublingually immunogenic
OVA323-339; mouse models, Coil29 nanofibers, liquid formulations
  Sublingual immunogenicity: did not depend on PASylation for immunogenicity
[1]
  Nanofibrillar structure in tablets: retained their nanofibrillar structure

## C[C@@H]1O[C@@H]1P(=O)(O)O [Fosfomycin]
[2]
  Body temperature after transurethral challenge: maintained significantly higher temperatures than mice given the control vaccine
Gut microbiome; week 13 (vaccine) or week 13.5 (after 3 daily doses of 1000 mg/kg Fosfomycin)
  OTU richness of the microbiome: drastically reduced
Gut microbiome; week 13 (vaccine) or week 13.5 (antibiotic)
  Shannon diversity index (α-diversity): highly significantly different from these groups

## QLVFNSISARALKAY [VAC]
I-Ab
  Kd: 0.0135 µM

## Nc1ncnc2c1ncn2[C@@H]1O[C@@H]2COP(=O)(O)O[C@H]3[C@@H](O)[C@H](n4cnc5c(N)ncnc54)O[C@@H]3COP(=O)(O)O[C@H]2[C@H]1O [cyclic-di-AMP]
OVA323-339; 1 μg c-di-AMP with 8 μL of 5 mM OVA-Coil29, sublingual
  Serum IgG titers at reduced adjuvant dose: equivalent titers to 10 times that dose; also recorded: sufficient to raise strong titers
[3]; cyclic-di-AMP vs CTB (p=0.038)
  Epitope-specific IgA levels in the urine, adjuvant comparison: significantly higher epitope-specific IgA levels in the urine than CTB
[3]; cyclic-di-AMP vs CTB (p=0.38)
  Epitope-specific IgG levels in the urine, adjuvant comparison: did not differ significantly
